The COVID Moonshot data (paper PMC11187573), “Identification of SARS-CoV-2 Mpro inhibitors through deep reinforcement learning for de novo drug design and computational chemistry approaches” (RSC Medicinal Chemistry, 2024)

How the values were obtained:
[1] = target: SARS-CoV-2 Main Protease (SARS-CoV-2) (UniProt P0DTD1)
[2] = target: SARS-CoV-2 Main Protease (SARS-CoV-2) (UniProt P0DTD1); remark: listed apart in the source
Description: Briefly, compounds were seeded into assay-ready plates (Greiner 384PP, cat# 781280) using an ECHO 650T dispenser and DMSO was back-filled for a uniform concentration in assay plates (DMSO concentration < 1%, final volume = 500 nL.). […] After a quick centrifugation step (1000 rpm, 15 s) the plate is incubated for 15 min at room temperature. […] After centrifugation (1000 rpm, 14 s) the reaction is incubated for 10 min (11-mer) or 5 min (37-mer) at room temperature before quenching with 10 % formic acid. The reactions are analysed with MS using RapidFire (RF) 365 high-throughput sampling robot (Agilent) connected to an iFunnel Agilent 6550 accurate mass quadrupole time-of-flight (Q-TOF) mass spectrometer using electrospray. […] Dose response curves uses an 11-point range of 100--0.0017 µM inhibitor concentrations. RapidFire integrator software (Agilent) was used to extract the charged states from the total ion chromatogram data followed by peak integration. For the 11-mer peptide the m/z (+1) charge states of both the substrate (1191.67 Da) and cleaved N-terminal product TSAVLQ (617.34 Da) were used and the 37-mer peptide the m/z (+2) charge states of the substrate (3960.94 Da) and m/z (+1) of the cleaved C-terminal product [sequence] (1125.57 Da). Percentage conversion (product peak integral / (product peak integral + substrate peak integral))*100) and percentage inhibitions were calculated and normalised against DMSO control with deduction of any background signal in Microsoft Excel. IC50s were calculated using Levenberg–Marquardt algorithm used to fit a restrained Hill equation to the dose-response data with both GraphPad PRISM and CDD.

Structure (SMILES) | inhibition ([1]; 20.0 µM) [%] | inhibition ([1]; 50.0 µM) [%] | inhibition ([2]; 50.0 µM) [%] | relative solubility at 20 uM | relative solubility at 100 uM | inhibition ([2]; 20.0 µM) [%] | IC50 [2] [µM]
O=C(CCNC(=O)c1c[nH]c2ccccc12)Nc1ccc(-n2cnc3ccccc32)cc1 | -3.48 | 8.08 | 43.9 | 0.82 | 0.54 | – | –
C=CC(=O)N(c1ccc(C(C)(C)C)cc1)C(C(=O)NCCCC(=O)OCC)c1cccnc1 (stereo not drawn) | 6.16 | 30.9 | 14.6 | 0.99 | 0.96 | 0 | –
Cc1nnc(NC(=O)Nc2cccnc2)s1 | 1.19 | 7.32 | 8.86 | 1 | 0.99 | 4.62 | –
C=CC(=O)N(c1ccc(CC)c(I)c1)C(C(=O)NC(C)(C)C)c1cccnc1 (stereo not drawn) | 15.2 | 20.7 | 9.38 | 0.95 | 0.93 | – | –
COc1ccc2[nH]cc(CCNC(C)=O)c2c1 | 1.37 | -0.962 | – | 1 | 0.99 | 0 | –
C=CC(=O)N(c1ccc(SC)cc1)C(C(=O)Nc1ccc(Cl)cc1)c1cccnc1 (stereo not drawn) | 16.9 | 32.3 | – | 0.81 | 0.64 | 9.4 | –
O=C1CC(Oc2cccc(C(=O)NCc3cncnc3)c2)N1 (stereo not drawn) | 21.6 | 25.1 | 28.1 | 1 | 1 | – | –
O=C(N/N=C/c1c[nH]cn1)C1CCCCC1 | -3.95 | 2.16 | -16.3 | 1.01 | 1 | – | –
Cc1ccc(NC(=O)Nc2cccnc2)s1 | 1.9 | 11.3 | 28.6 | 1 | 0.96 | 2.62 | –
Cc1ccncc1NC(=O)Cc1cccc(OC(F)(F)F)c1 | -3.16 | -22.5 | 12.6 | 0.98 | 0.98 | – | –
C=CC(=O)N(C1CCCC(C(C)C)CC1)C(C(=O)NC(C)(C)C)c1cccnc1 (stereo not drawn) | -1.08 | 8.24 | – | 0.99 | 0.95 | 0 | –
O=C(NCc1cccnn1)Nc1cccc(OCCN2CCOCC2)c1 | 1.16 | 1.22 | 0 | 1 | 0.99 | 0 | –
O=C(Nc1cccnc1)Nc1cncc(Cl)c1 | – | 16.8 | -0.075 | 1 | 1 | 0 | –
Cc1cc(Br)cc2c1N(CCBr)C(=O)C2=O | -3.94 | -4.22 | 95.6 | 1 | 1 | – | 16.7
CC(C(=O)Nc1cnccc1C)=C1CC1 | 2.11 | -8.02 | 0 | 1 | 1 | – | –
CNS(=O)(=O)Cc1ccc2[nH]cc(CCN(C)C)c2c1 | 4.66 | 2.38 | – | 1 | 1 | 0 | –
CC(=O)Nc1ccc(C#N)cc1CN1CCN(C(=O)CCl)CC1 | 20.6 | 43.4 | – | 1 | 1.01 | 59.2 | 17.5
C=C1CC1C(=O)NC(C)c1ccc(S(=O)(=O)NC)cc1 (stereo not drawn) | -2.67 | -0.972 | 0 | 1 | 1 | 0 | –
Cc1cc(C)c(C)c(S(=O)(=O)N2CCN(C(=O)c3cc[nH]c(=O)c3)CC2)c1C | -1.5 | 5.56 | 0 | 0.99 | 0.98 | – | –
Cc1ccncc1NC(=O)Cc1ccc2[nH]ccc2c1 | 2.86 | -2.33 | 0 | 1 | 1 | – | –

Structure (SMILES) | inhibition ([1]; 20.0 µM) [%] | inhibition ([1]; 50.0 µM) [%] | inhibition ([2]; 50.0 µM) [%] | relative solubility at 20 uM | relative solubility at 100 uM | inhibition ([2]; 20.0 µM) [%] | IC50 [2] [µM]
Cc1cccc(CC2CCN(C(=O)CCl)CC2)c1 | 62.9 | 90.5 | 87.1 | 1 | 1 | – | 4.49
NS(=O)(=O)c1ccc(N2CCC(c3ccncc3)CC2)cc1 | 0.875 | 1.65 | 1.84 | 1 | 0.94 | 1.05 | –
Cc1nnc(NC(=O)Cc2cccc(Cl)c2F)s1 | 1.02 | -14.8 | 0 | 0.99 | 0.68 | – | –
Cc1nn(-c2ccccc2)c(Nc2cccc(C(F)(F)F)c2)c1NS(C)(=O)=O | 3.18 | -5.82 | -10.6 | 0.95 | 0.97 | – | –
O=C(Nc1cnccc1Cl)c1cc(Cl)ccc1O | 66.8 | 75.2 | 65.9 | 1 | 0.98 | 15.5 | –
CC1CN(Cc2ccccc2NC(=O)NCc2cnsc2)CC(C)O1 (stereo not drawn) | 1.48 | 4.44 | 1.33 | 1 | 0.98 | 0 | –
C#Cc1ccc(CNC(=O)N2CCOCC2)cc1 | 1.4 | 2.46 | 0 | 1 | 1 | 0 | –
Cc1ccc(Oc2cccc(NC(=O)NCc3cnnn3C)c2)c(C)c1 | -10.7 | -12.8 | – | 0.96 | 0.75 | 0 | –
CC1(C)CC(C(=O)Nc2nncn2C2CC2)c2ccccc2O1 (stereo not drawn) | -0.71 | -5.02 | 0 | 1 | 0.98 | – | –
C=CC(=O)N(c1ccc2ncsc2c1)C(C(=O)Nc1ccc(Cl)cc1)c1cccnc1 (stereo not drawn) | 8.95 | 25.3 | – | 0.87 | 0.69 | 2.57 | –
C=CC(=O)N(c1ccc(C(F)(F)F)cc1)C(C(=O)Nc1ccccc1Br)c1cccnc1 (stereo not drawn) | 15.6 | 22 | – | 0.94 | 0.83 | 9.6 | –
C=CC(=O)N(c1ccc(C(C)OC)cc1)C(C(=O)NC(C)(C)C)c1cccnc1 (stereo not drawn) | 7.07 | 15.9 | – | 0.98 | 0.86 | 0 | –
O=C(NCc1ccccc1OCCO)C(=O)N[C@H]1C[C@H]1C1CCOCC1 (stereo in doubt) | 1.34 | -9.81 | 0 | 1.01 | 1 | – | –
O=C(Cc1ccccc1OC1CCOC1)OCc1cnn[nH]1 (stereo not drawn) | – | 20.7 | 0 | 1 | 1 | 0 | –
Nc1ncncc1CNC(=O)Nc1ccccc1OCCn1ccnc1 | – | 15.8 | 9.19 | 1 | 1 | 1.47 | –
Cc1ccncc1NC(=O)C(C)(C)c1cccc(Cl)c1 | 49.3 | 68 | 66.9 | 1 | 1 | – | 24.5
Cc1ccncc1NC(=O)CCc1ccn[nH]1 | 18.9 | -26.3 | -1.76 | 1 | 1 | – | –
COc1ccc2c(c1)C(C(=O)Nc1cncnc1C)CCC2 (stereo not drawn) | 6.97 | -24.1 | 2.78 | 1 | 1 | – | –
Cc1cccc(NC(=O)C(C#N)C(=O)C2CCC2)c1 (stereo not drawn) | – | 1.6 | 0 | 0.99 | 0.99 | 0.951 | –
O=C(CCl)NC(CO)c1cccc(Cl)c1 (stereo not drawn) | – | 51.6 | 45.3 | 1 | 0.99 | 16 | –
